Test results as given in patent publication US7223758B2, “Pyridazine derivative, pharmaceutical composition thereof, its pharmaceutical use, and process for its preparation” (Sanofi-Aventis, priority 2002, dated 2007).

biological target: T1, cathepsin K (Homo sapiens, UniProt P43235); assay: Study of the inhibition of cathepsin K (fluorogenic substrate Z-Val-Arg-AMC); assay type: biochemical; details: cathepsin K 5 ng/ml, substrate Z-Val-Arg-AMC 20 μM, pH 5.5, two hours at room temperature; concentration range from 50 to 0.5 μM
T1 sequence (P43235 115-329): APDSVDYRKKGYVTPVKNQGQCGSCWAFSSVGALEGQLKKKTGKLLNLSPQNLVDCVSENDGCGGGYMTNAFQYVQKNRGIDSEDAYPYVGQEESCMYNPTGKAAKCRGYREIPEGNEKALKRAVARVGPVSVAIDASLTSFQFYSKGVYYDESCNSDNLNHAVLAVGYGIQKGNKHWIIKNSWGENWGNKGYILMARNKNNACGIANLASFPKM
Description: Pharmacological study of the products of the invention Study of the inhibition of cathepsin K
The test products (10 mM) are diluted to 1 mM in DMSO and distributed in polystyrene Nunc 96-well plates at a rate of 2 μl per well. Column 12 of the plate is reserved for the controls and thus receives […] of DMSO (without products) per well. The plates are stored at −80° C. and thawed on the day of the experiment.
The products are diluted to 50 μM by addition of 38 μl of reaction buffer: 100 mM sodium acetate, 5 mM EDTA, 1 mM DTT, pH 5.5. The addition and all the pipetting are performed with a 96-tip CybiWell pipette. After mixing the solutions, each product is transferred into 2 wells (duplicates) of a black Greiner 384-well plate at a rate of 10 μl per well. Two 96-well plates can thus be tested in one 384-well plate.
A solution of substrate, Z-Val-Arg-AMC (Calbiochem), at a concentration of 50 μm is prepared in the reaction buffer. The substrate is the distributed among all the wells of the 384-well plate (20 μl per well).
A solution of cathepsin K at a concentration of 12.5 ng/ml is prepared in the reaction buffer and distributed among all the wells of the 384-well plate (20 μl per well) except for the 16 wells serving as 100% inhibition controls (columns 23 and 24, lines I to P), which receive 20 μl of enzyme-free buffer. […] are performed in columns 23 and 24, lines A to H, which contain no products.
The plates are then incubated for two hours at room temperature, and then read on a Fluoroskan (Labsystems): excitation 390 nm; emission 460 nm.
The final concentrations of each of the reagents are: Products 10 μM, Substrate 20 μM, enzyme 5 ng/ml.
The percentages of inhibition for each of the products are calculated by using the points at 0 and 100% inhibition of each plate as references. The products showing significant inhibition are then retested over a concentration range from 50 to 0.5 μM to determine an IC50.

First: N#CC(NC(=O)[C@@H]1CCCNN1C(=O)CCNC(=O)Cc1ccccc1)c1cccc(Oc2ccccc2)c1 (mixture of isomers) [Example 5, (3S)-2-[3-[(phenylacetyl)amino]-1-oxopropyl]-N-[cyano-(3-phenoxyphenyl)methyl]hexahydro-3-pyridazine-carboxamide]
Second: N#CC(OC(=O)[C@@H]1CCCN(C(=O)OCc2ccccc2)N1C(=O)CCNC(=O)Cc1ccccc1)c1cccc(Oc2ccccc2)c1 (mixture of isomers) [Example 7, 1-(phenylmethyl)-3-[(R)-cyano(3-phenoxyphenyl)methyl](3S)-2-[1-oxo-3-[(phenylacetyl)amino]propyl]tetrahydro-1,3(2H)-pyridazinedicarboxylate]
The IC50 of the first is lower: < 1 µM for the first, 1 to 10 µM for the second. The first is the more potent here.

`N#CC(OC(=O)[C@@H]1CCCNN1C(=O)CCNC(=O)Cc1ccccc1)c1cccc(Oc2ccccc2)c1` (mixture of isomers) [Example 8, 3-[cyano(3-phenoxyphenyl)methyl] (3S)-2-[1-oxo-3-[(phenylacetyl)-amino]propyl]tetrahydro-1,3-(2H)-pyridazinecarboxylate] and `N#CC(NC(=O)[C@@H]1CCCN(C(=O)OCc2ccccc2)N1C(=O)CCNC(=O)Cc1ccccc1)c1cccc(Oc2ccccc2)c1` (stereo partly drawn) [Example 4, (phenylmethyl) (3S)-2-[1-oxo-3-[(phenylacetyl)amino]propyl]-3-[[[cyano(3-phenoxy-phenyl)methyl]amino]carbonyl]tetrahydro-1(2H)pyridazine-carboxylate] fall in the same range of IC50: 1 to 10 µM for the first, 1 to 10 µM for the second.

`N#CC(OC(=O)[C@@H]1CCCN(C(=O)OCc2ccccc2)N1C(=O)CCNC(=O)Cc1ccccc1)c1cccc(Oc2ccc(Br)cc2)c1` (stereo partly drawn) [Example 9, 1-(phenylmethyl)-3-[cyano-3-[(4-bromophenoxy)phenyl]-methyl] (3S)2-[1-oxo-3-[(phenylacetyl)amino]propyl]-tetrahydro-1,3(2H)-pyridazinedicarboxylate] and `N#CC(NC(=O)[C@@H]1CCCN(C(=O)OCc2ccccc2)N1C(=O)CCNC(=O)Cc1ccccc1)c1ccccc1` (stereo partly drawn) [Example 10, (phenylmethyl) (3S)-3-[[(cyanophenylmethyl)amino]carbonyl]-2-[1-oxo-3-[(phenylacetyl)amino]propyl]tetrahydro-1(2H)-pyridazinecarboxylate] fall in the same range of IC50: 1 to 10 µM for the first, 1 to 10 µM for the second.

`N#CC(NC(=O)[C@@H]1CCCNN1C(=O)CCNC(=O)Cc1ccccc1)c1ccccc1` (stereo partly drawn) [Example 11, (3S)-N-(cyanophenyl-methyl)-2-[1-oxo-3-[(phenylacetyl)amino]propyl]hexa-hydro-3-pyridazinecarboxamide] and `N#CCNC(=O)[C@@H]1CCCN(C(=O)OCc2ccccc2)N1C(=O)CCNC(=O)Cc1ccccc1` [Example 12] fall in the same range of IC50: 1 to 10 µM for the first, 1 to 10 µM for the second.

Compared with `N#CNC(=O)[C@@H]1CCCNN1C(=O)CCNC(=O)Cc1ccccc1` [Example 13, (3S)-N-cyano-2-[1-oxo-3-[(phenylacetyl)amino]propyl]hexahydro-3-pyridazinecarb-oxamide], `N#CC(NC(=O)[C@@H]1CCCNN1C(=O)CCc1ccccc1)c1cccc(Oc2ccccc2)c1` (stereo partly drawn) [Example 15, (3S)-N-[cyano(3-phenoxyphenyl)methyl]-2-(1-oxo-3-phenylpropyl)hexa-hydro-3-pyridazinecarboxamide] is lower in IC50: 1 to 10 µM for the first, < 1 µM for the second.

“(phenylmethyl) (3S)-3-[[[cyano(3-phenoxyphenyl)methyl]amino]carbonyl]-2-[3-phenyl-1-oxopropyl]tetrahydro-1(2H)-pyridazine-carboxylate [Example 14]” showed an IC50 of 1 to 10 µM.
